# Test results: patent publication US8993752B2, “Neprilysin inhibitors” (Theravance Biopharma R&D IP, LLC, priority 2011, dated 2015)
# Biological target: T1, human NEP (Homo sapiens, UniProt P08473)
# T1 construct: purchased R&D Systems, Minneapolis, Minn; 1182-ZN
# Experiment: In vitro enzyme inhibition assay at human NEP (fluorogenic peptide substrate)
# Type: biochemical
# Details: recombinant human NEP; substrate Mca-D-Arg-Arg-Leu-Dap-(Dnp)-OH 10 μM; 37° C.; values given as ranges; read-out: pKi values at human NEP (converted)
# Experimental: The inhibitory activities of compounds at human and rat neprilysin (EC 3.4.24.11; NEP) and human angiotensin converting enzyme (ACE) were determined using in vitro assays as described below.
# Recombinant human NEP and recombinant human ACE were obtained commercially (R&D Systems, Minneapolis, Minn., catalog numbers 1182-ZN and 929-ZN, respectively). The fluorogenic peptide substrate Mca-D-Arg-Arg-Leu-Dap-(Dnp)-OH (Medeiros et al. (1997) Braz. J. Med. Biol. Res. 30:1157-62; Anaspec, San Jose, Calif.) and Abz-Phe-Arg-Lys(Dnp)-Pro-OH (Araujo et al. (2000) Biochemistry 39:8519-8525; Bachem, Torrance, Calif.) were used in the NEP and ACE assays respectively.
# The assays were performed in 384-well white opaque plates at 37° C. using the fluorogenic peptide substrates at a concentration of 10 μM in Assay Buffer (NEP: 50 mM HEPES, pH 7.5, 100 mM NaCl, 0.01% polyethylene glycol sorbitan monolaurate (Tween-20), 10 μM ZnSO4; ACE: 50 mM HEPES, pH 7.5, 100 mM NaCl, 0.01% Tween-20, 1 μM ZnSO4).
# Test compounds were assayed over the range of concentrations from 10 μM to 20 pM. Test compounds were added to the enzymes and incubated for 30 minute at 37° C. prior to initiating the reaction by the addition of substrate. Reactions were terminated after 20 minutes of incubation at 37° C. by the addition of glacial acetic acid to a final concentration of 3.6% (v/v).
# Plates were read on a fluorometer with excitation and emission wavelengths set to 320 nm and 405 nm, respectively Inhibition constants were obtained by nonlinear regression of the data using the equation (GraphPad Software, Inc., San Diego, Calif.): v=v0/[1+(I/K′)] where v is the reaction rate, v0 is the uninhibited reaction rate, I is the inhibitor concentration and K′ is the apparent inhibition constant.
# Compounds of the invention were tested in this assay and found to have pKi values at human NEP as follows.
# T1 sequence (P08473 whole entry): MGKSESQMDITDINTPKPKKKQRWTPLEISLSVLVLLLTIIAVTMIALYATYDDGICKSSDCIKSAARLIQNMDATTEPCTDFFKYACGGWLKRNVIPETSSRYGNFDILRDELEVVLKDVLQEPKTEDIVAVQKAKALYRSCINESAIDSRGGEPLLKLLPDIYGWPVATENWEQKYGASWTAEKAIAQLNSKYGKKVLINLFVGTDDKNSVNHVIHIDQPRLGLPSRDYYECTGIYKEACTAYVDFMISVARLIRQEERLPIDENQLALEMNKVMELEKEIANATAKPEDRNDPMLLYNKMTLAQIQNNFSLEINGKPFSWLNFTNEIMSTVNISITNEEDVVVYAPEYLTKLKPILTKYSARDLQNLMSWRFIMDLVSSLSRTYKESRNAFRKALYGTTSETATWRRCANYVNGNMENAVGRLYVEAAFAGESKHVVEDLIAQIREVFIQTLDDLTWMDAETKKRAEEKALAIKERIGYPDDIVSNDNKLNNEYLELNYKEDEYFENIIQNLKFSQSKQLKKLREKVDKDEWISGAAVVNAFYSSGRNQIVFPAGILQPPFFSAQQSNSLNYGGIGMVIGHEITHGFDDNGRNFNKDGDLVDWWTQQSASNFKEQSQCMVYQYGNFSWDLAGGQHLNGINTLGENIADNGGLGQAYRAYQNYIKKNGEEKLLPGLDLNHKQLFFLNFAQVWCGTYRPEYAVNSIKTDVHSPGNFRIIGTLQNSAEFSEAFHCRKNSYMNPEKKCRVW
row,SMILES,Ki
1,"COc1cccc(Cn2nc(C(=O)N[C@H](Cc3ccccc3)[C@@H](O)C(=O)O)cc2C(=O)O)c1 [Example 8-5, 5-((1R,2R)-1-Benzyl-2-carboxy-2-hydroxy-ethylcarbamoyl)-2-(3-methoxy-benzyl)-2H-pyrazole-3-carboxylic acid]",1.26 to 10 nM
2,"O=C(N[C@H](Cc1ccccc1Cl)[C@@H](O)C(=O)O)c1cc(C(=O)O)n(Cc2c(F)cccc2F)n1 [Example 2-44, 5-[(1R,2R)-2-Carboxy-1-(2-chloro-benzyl)-2-hydroxy-ethylcarbamoyl]-2-(2,6-difluoro-benzyl)-2H-pyrazole-3-carboxylic acid]",1.26 to 10 nM
3,"O=C(N[C@H](Cc1ccccc1)[C@@H](O)C(=O)O)c1cc(C(=O)O)n(Cc2ccccc2)n1 [Example 8-8, 2-Benzyl-5-((1R,2R)-1-benzyl-2-carboxy-2-hydroxy-ethylcarbamoyl)-2H-pyrazole-3-carboxylic acid]",1.26 to 10 nM
4,"COc1c(F)cc(Cn2nc(C(=O)N[C@H](Cc3ccccc3Cl)[C@@H](O)C(=O)O)cc2C(=O)O)cc1F [Example 2-34, 5-[(1R,2R)-2-Carboxy-1-(2-chloro-benzyl)-2-hydroxy-ethylcarbamoyl]-2-(3,5-difluoro-4-methoxy-benzyl)-2H-pyrazole-3-carboxylic acid]",≤ 1 nM
5,"O=C(N[C@H](Cc1ccccc1Cl)[C@@H](O)C(=O)O)c1cc(-c2cc(Cl)ccc2Cl)n[nH]1 [Example 3-7, (2R,3R)-4-(2-Chloro-phenyl)-3-{[5-(2,5-dichloro-phenyl)-2H-pyrazole-3-carbonyl]-amino}-2-hydroxy-butyric acid]",1.26 to 10 nM
6,"Cc1ccc(Cn2nc(C(=O)N[C@H](Cc3ccccc3Cl)[C@@H](O)C(=O)O)cc2C(=O)O)cc1 [Example 2-40, 5-[(1R,2R)-2-Carboxy-1-(2-chloro-benzyl)-2-hydroxy-ethylcarbamoyl]-2-(4-methyl-benzyl)-2H-pyrazole-3-carboxylic acid]",1.26 to 10 nM
7,"O=C(N[C@H](Cc1ccccc1)[C@@H](O)C(=O)O)c1cc([N+](=O)[O-])[nH]n1 [Example 8-11, (2R,3R)-2-Hydroxy-3-[(5-nitro-1H-pyrazole-3-carbonyl)-amino]-4-phenyl-butyric acid]",12.6 to 100 nM
8,"COc1cccc(Cn2nc(C(=O)N[C@@H](CC(=O)O)Cc3ccccc3Cl)cc2C(=O)O)c1 [Example 11-1, 5-[(R)-2-Carboxy-1-(2-chloro-benzyl)-ethylcarbamoyl]-2-(3-methoxy-benzyl)-2H-pyrazole-3-carboxylic acid]",12.6 to 100 nM
9,"O=C(N[C@H](Cc1ccccc1Cl)[C@@H](O)C(=O)O)c1cc(C(=O)O)n(Cc2cccc(Cl)c2)n1 [Example 2-10, 5-[(1R,2R)-2-Carboxy-1-(2-chloro-benzyl)-2-hydroxy-ethylcarbamoyl]-2-(3-chloro-benzyl)-2H-pyrazole-3-carboxylic acid]",1.26 to 10 nM
10,"O=C(N[C@H](Cc1ccccc1)[C@@H](O)C(=O)O)c1cc(C(=O)O)n(Cc2c(F)cc(Cl)cc2F)n1 [Example 8-3, 5-((1R,2R)-1-Benzyl-2-carboxy-2-hydroxy-ethylcarbamoyl)-2-(4-chloro-2,6-difluoro-benzyl)-2H-pyrazole-3-carboxylic acid]",1.26 to 10 nM
11,"O=C(N[C@H](Cc1ccccc1)[C@@H](O)C(=O)O)c1ccn(Cc2ccc(Cl)cc2)n1 [Example 8-16, (2R,3R)-3-{[1-(4-Chloro-benzyl)-1H-pyrazole-3-carbonyl]-amino}-2-hydroxy-4-phenyl-butyric acid]",12.6 to 100 nM
12,"O=C(N[C@H](Cc1ccccc1)[C@@H](O)C(=O)O)c1cnn(-c2ccccn2)c1 [Example 9-1, (2R,3R)-2-Hydroxy-4-phenyl-3-[(1-pyridin-2-yl-1H-pyrazole-4-carbonyl)-amino]-butyric acid]",12.6 to 100 nM
13,"O=C(N[C@H](Cc1ccccc1Cl)[C@@H](O)C(=O)O)c1cc(C(=O)O)n(Cc2ccccc2Cl)n1 [Example 2-19, 5-[(1R,2R)-2-Carboxy-1-(2-chloro-benzyl)-2-hydroxy-ethylcarbamoyl]-2-(2-chloro-benzyl)-2H-pyrazole-3-carboxylic acid]",1.26 to 10 nM
14,"O=C(N[C@H](Cc1ccccc1Cl)[C@@H](O)C(=O)O)c1cc(O)n(Cc2ccc(Cl)cc2F)n1 [Example 2-67, (2R,3R)-3-{[1-(4-Chloro-2-fluoro-benzyl)-5-hydroxy-1H-pyrazole-3-carbonyl]-amino}-4-(2-chloro-phenyl)-2-hydroxy-butyric acid]",12.6 to 100 nM
15,"O=C(O)C[C@@H](Cc1ccccc1Cl)NC(=O)c1cc(C(=O)O)n(CC(=O)O)n1 [Example 11-9, 5-[(R)-2-Carboxy-1-(2-chloro-benzyl)-ethylcarbamoyl]-2-carboxymethyl-2H-pyrazole-3-carboxylic acid]",12.6 to 100 nM
16,"O=C(N[C@H](Cc1ccccc1Cl)[C@@H](O)C(=O)O)c1cc(C(=O)O)n(Cc2ccc(Cl)cc2)n1 [Example 2-1, 5-[(1R,2R)-2-Carboxy-1-(2-chloro-benzyl)-2-hydroxy-ethylcarbamoyl]-2-(4-chloro-benzyl)-2H-pyrazole-3-carboxylic acid]",1.26 to 10 nM
17,"COc1c(F)c(F)c(Cn2nc(C(C)=O)cc2C(=O)N[C@H](Cc2ccccc2Cl)[C@@H](O)C(=O)O)c(F)c1F [Example 3-6, (2R,3R)-3-{[5-Acetyl-2-(2,3,5,6-tetrafluoro-4-methoxy-benzyl)-2H-pyrazole-3-carbonyl]-amino}-4-(2-chloro-phenyl)-2-hydroxy-butyric acid]",≤ 1 nM
18,"O=C(N[C@H](Cc1ccccc1Cl)[C@@H](O)C(=O)O)c1cc(C(=O)O)n(CCc2ccccc2)n1 [Example 2-59, 5-[(1R,2R)-2-Carboxy-1-(2-chloro-benzyl)-2-hydroxy-ethylcarbamoyl]-2-phenethyl-2H-pyrazole-3-carboxylic acid]",12.6 to 100 nM
19,"O=C(N[C@H](Cc1ccccc1Cl)[C@@H](O)C(=O)O)c1cc(-c2ccc3ccccc3c2)[nH]n1 [Example 2-53, (2R,3R)-4-(2-Chloro-phenyl)-2-hydroxy-3-[(5-naphthalen-2-yl-1H-pyrazole-3-carbonyl)-amino]-butyric acid]",12.6 to 100 nM
20,"O=C(N[C@H](Cc1ccccc1Cl)[C@@H](O)C(=O)O)c1cc(-c2ccco2)[nH]n1 [Example 2-52, (2R,3R)-4-(2-Chloro-phenyl)-3-[(5-furan-2-yl-1H-pyrazole-3-carbonyl)-amino]-2-hydroxy-butyric acid]",12.6 to 100 nM
21,"O=C(N[C@H](Cc1ccccc1C(F)(F)F)[C@@H](O)C(=O)O)c1cc(C(=O)NCCc2c[nH]cn2)[nH]n1 [Example 6-4, (2R,3R)-2-Hydroxy-3-({5-[2-(1H-imidazol-4-yl)-ethylcarbamoyl]-1H-pyrazole-3-carbonyl}-amino)-4-(2-trifluoromethyl-phenyl)-butyric acid]",12.6 to 100 nM
22,"O=C(N[C@H](Cc1ccccc1Cl)[C@@H](O)C(=O)O)c1cc(C(=O)O)n(Cc2ccc(OC(F)(F)F)cc2)n1 [Example 2-33, 5-[(1R,2R)-2-Carboxy-1-(2-chloro-benzyl)-2-hydroxy-ethylcarbamoyl]-2-(4-trifluoromethoxy-benzyl)-2H-pyrazole-3-carboxylic acid]",≤ 1 nM
23,"O=C(N[C@H](Cc1ccccc1)[C@@H](O)C(=O)O)c1cc(C(=O)O)n(Cc2ccc(Cl)cc2)n1 [Example 8-6, 5-((1R,2R)-1-Benzyl-2-carboxy-2-hydroxy-ethylcarbamoyl)-2-(4-chloro-benzyl)-2H-pyrazole-3-carboxylic acid]",1.26 to 10 nM
24,"COc1ccc(Cn2cc(C(=O)N[C@H](Cc3ccccc3Cl)[C@@H](O)C(=O)O)cn2)c(F)c1F [Example 4-1, (2R,3R)-4-(2-Chloro-phenyl)-3-{[1-(2,3-difluoro-4-methoxy-benzyl)-1H-pyrazole-4-carbonyl]-amino}-2-hydroxy-butyric acid]",1.26 to 10 nM
25,"CC(=O)Nc1cccc(-c2cc(C(=O)N[C@H](Cc3ccccc3Cl)[C@@H](O)C(=O)O)n[nH]2)c1 [Example 2-47, (2R,3R)-3-{[5-(3-Acetylamino-phenyl)-1H-pyrazole-3-carbonyl]-amino}-4-(2-chloro-phenyl)-2-hydroxy-butyric acid]",12.6 to 100 nM
26,"COc1ccccc1-c1cc(C(=O)N[C@H](Cc2ccccc2Cl)[C@@H](O)C(=O)O)[nH]n1 [Example 3-4, (2R,3R)-4-(2-Chloro-phenyl)-2-hydroxy-3-{[5-(2-methoxy-phenyl)-2H-pyrazole-3-carbonyl]-amino}-butyric acid]",12.6 to 100 nM
27,"O=C(N[C@H](Cc1ccccc1Cl)[C@@H](O)C(=O)O)c1cc(-c2ccccc2Cl)n(-c2ccc(Cl)c(Cl)c2)n1 [Example 2-63, (2R,3R)-4-(2-Chloro-phenyl)-3-{[5-(2-chloro-phenyl)-1-(3,4-dichloro-phenyl)-1H-pyrazole-3-carbonyl]-amino}-2-hydroxy-butyric acid]",12.6 to 100 nM
